In patent US20080171783A1, “COMPOSITIONS AND METHODS FOR TREATING HYPERPROLIFERATIVE DISEASE” (Migenix Inc., priority 2006, published 2008):

Key:
HL-60(TB) = test: NCI In Vitro Cell Line Screening (SRB); assay type: cell-based, human; conditions: Leukemia, 48 h; for GI50: Homo sapiens
K-562 = test: NCI In Vitro Cell Line Screening (SRB); assay type: cell-based; conditions: K-562, Leukemia, 48 h
MOLT-4 = test: NCI In Vitro Cell Line Screening (SRB); assay type: cell-based, human; conditions: MOLT-4, Leukemia, 48 h
RPMI-8226 = test: NCI In Vitro Cell Line Screening (SRB); assay type: cell-based, human; conditions: RPMI-8226, Leukemia, 48 h
A549/ATCC = test: NCI In Vitro Cell Line Screening (SRB); assay type: cell-based; conditions: Non-Small Cell Lung Cancer, 48 h; for GI50 / CC50: Homo sapiens; for CC50: read-out: LC50 (the source's name)
HOP-62 = test: NCI In Vitro Cell Line Screening (SRB); assay type: cell-based, human; conditions: HOP-62, Non-Small Cell Lung Cancer, 48 h
NCI-H522 = test: NCI In Vitro Cell Line Screening (SRB); assay type: cell-based, human; conditions: NCI-H522, Non-Small Cell Lung Cancer, 48 h
HCC-2998 = test: NCI In Vitro Cell Line Screening (SRB); assay type: cell-based; conditions: HCC-2998, Colon Cancer, 48 h; for GI50 / LC50 (lethal concentration, 50% cell kill): Homo sapiens
HCT-116 = test: NCI In Vitro Cell Line Screening (SRB); assay type: cell-based, human; conditions: HCT-116, Colon Cancer, 48 h
HCT-15 = test: NCI In Vitro Cell Line Screening (SRB); assay type: cell-based, human; conditions: HCT-15, Colon Cancer, 48 h; for GI50 / CC50: Homo sapiens; for CC50: read-out: LC50 (the source's name)
HT29 = test: NCI In Vitro Cell Line Screening (SRB); assay type: cell-based; conditions: HT29, Colon Cancer, 48 h; for GI50 / CC50: Homo sapiens, HT-29; for CC50: read-out: LC50 (the source's name)
SNB-19 = test: NCI In Vitro Cell Line Screening (SRB); assay type: cell-based, human; conditions: SNB-19, CNS Cancer, 48 h
LOX IMVI = test: NCI In Vitro Cell Line Screening (SRB); assay type: cell-based, human; conditions: Melanoma, 48 h; for GI50 / LC50: Homo sapiens
IGROV1 = test: NCI In Vitro Cell Line Screening (SRB); assay type: cell-based; conditions: IGROV1, Ovarian Cancer, 48 h; for CC50: read-out: LC50 (the source's name)
OVCAR-5 = test: NCI In Vitro Cell Line Screening (SRB); assay type: cell-based, human; conditions: OVCAR-5, Ovarian Cancer, 48 h; for GI50 / CC50: Homo sapiens; for CC50: read-out: LC50 (the source's name)
SK-OV-3 = test: NCI In Vitro Cell Line Screening (SRB); assay type: cell-based, human; conditions: SK-OV-3, Ovarian Cancer, 48 h; for GI50 / CC50: Homo sapiens; for CC50: read-out: LC50 (the source's name)
A498 = test: NCI In Vitro Cell Line Screening (SRB); assay type: cell-based, human; conditions: A498, Renal Cancer, 48 h; for GI50 / CC50: Homo sapiens; for CC50: read-out: LC50 (the source's name)
DU-145 = test: NCI In Vitro Cell Line Screening (SRB); assay type: cell-based, human; conditions: DU-145, Prostate Cancer, 48 h; for GI50 / CC50: Homo sapiens; for CC50: read-out: LC50 (the source's name)
HS 578T = test: NCI In Vitro Cell Line Screening (SRB); assay type: cell-based, human; conditions: Breast Cancer, 48 h; for GI50 / CC50: Homo sapiens; for CC50: read-out: LC50 (the source's name)
[1] = test system: 5 Leukemia and 5 Colon Cancer Cell Lines; test: Cell viability by XTT, cell line panel; assay type: cell-based; conditions: for Range (Percentage of Control over the same 10 cell lines): 10 μM, lowest to highest of the ten cell lines; for viability at 10 µM: average of the ten Percentage of Control values, read-out: ARF (Average Response Factor, Average Percentage of Control)
Method in brief: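 Leukemia and colon cancer lines in exponential growth were exposed to compounds for four days at 37 °C/5% CO2, with colon lines allowed overnight adherence beforehand. Viability read by XTT/PMS reduction (4 h) at 450/650 nm; percent of control at 10 μM averaged over ten lines as ARF.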

[2] = Homo sapiens, read-out: LC50 (the source's name)

## CC(C)(C)c1ccc(NC(=O)[C@H](CCCCN)NC(=O)OCC2c3ccccc3-c3ccccc32)cc1 [Compound 105, (S)-[5-AMINO-1-(4-TERT-BUTYL-PHENYLCARBAMOYL)-PENTYL]-CARBAMIC ACID 9H-FLUOREN-9-YLMETHYL ESTER]
HL-60(TB)
  GI50: 1.54 µM
  TGI: 3.47 µM
K-562; Homo sapiens, K562
  GI50: 1.39 µM
K-562
  TGI: 3.32 µM
MOLT-4; Homo sapiens
  GI50: 1.66 µM
MOLT-4
  TGI: 3.42 µM
RPMI-8226; Homo sapiens
  GI50: 1.71 µM
RPMI-8226
  TGI: 3.78 µM
A549/ATCC
  GI50: 1.77 µM
  CC50: > 100 µM
  TGI: 23.5 µM
HOP-62
  TGI: 3.87 µM
HOP-62; Homo sapiens
  GI50: 2.18 µM
HOP-62; [2]
  CC50: 6.85 µM
NCI-H522; Homo sapiens
  GI50: 2.1 µM
NCI-H522
  TGI: 4.43 µM
HCC-2998
  TGI: 2.88 µM
  GI50: 1.39 µM
  LC50 (lethal concentration, 50% cell kill): 5.96 µM
HCT-116
  TGI: 3.35 µM
HCT-116; Homo sapiens
  GI50: 1.53 µM
  LC50 (concentration killing 50% of cells): 7.3 µM
HCT-15
  TGI: 24.4 µM
  GI50: 11.1 µM
  CC50: 53.9 µM
HT29
  GI50: 0.733 µM
  CC50: > 100 µM
SNB-19; Homo sapiens
  GI50: 1.6 µM
SNB-19; [2]
  CC50: 5.68 µM
SNB-19
  TGI: 3.01 µM
LOX IMVI
  GI50: 1.81 µM
  LC50: 6.42 µM
  TGI: 3.41 µM
IGROV1; Homo sapiens, IGROV-1
  CC50: 6.97 µM
IGROV1
  TGI: 3.11 µM
OVCAR-5
  GI50: 1.85 µM
  CC50: 6.5 µM
  TGI: 3.46 µM
SK-OV-3
  GI50: 1.85 µM
  CC50: 5.99 µM
  TGI: 3.33 µM
A498
  TGI: 0.665 µM
  GI50: 0.116 µM
  CC50: 15.5 µM
DU-145
  TGI: 31.2 µM
  GI50: 15.8 µM
  CC50: 61.6 µM
HS 578T
  TGI: 16.7 µM
  GI50: 2.93 µM
  CC50: 48.7 µM
[1]
  Range (Percentage of Control over the same 10 cell lines): 0 to 110.8%
  viability at 10 µM: 53.4%

## Cc1ccc(NC(=O)[C@@H](CCCCN)NC(=O)Nc2ccc3c(c2)Cc2ccccc2-3)cc1 [Compound 173, (R)-6-AMINO-2-[3-(9H-FLUOREN-2-YL)-UREIDO]-HEXANOIC ACID P-TOLYLAMIDE]
HL-60(TB)
  GI50: 1.77 µM
  TGI: 3.79 µM
K-562; Homo sapiens, K562
  GI50: 1.67 µM
K-562; Homo sapiens, K562, read-out: LC50 (the source's name)
  CC50: > 100 µM
MOLT-4; Homo sapiens
  GI50: 1.93 µM
MOLT-4; [2]
  CC50: 17.5 µM
MOLT-4
  TGI: 4.43 µM
RPMI-8226; Homo sapiens
  GI50: 1.59 µM
RPMI-8226; [2]
  CC50: > 100 µM
RPMI-8226
  TGI: 4.87 µM
A549/ATCC
  GI50: 1.55 µM
  CC50: 7.66 µM
  TGI: 3.45 µM
HOP-62
  TGI: 3.79 µM
HOP-62; Homo sapiens
  GI50: 1.88 µM
NCI-H522; Homo sapiens
  GI50: 4.15 µM
  LC50: > 100 µM
NCI-H522
  TGI: 23.5 µM
HCC-2998
  TGI: 4.88 µM
  GI50: 2.22 µM
  LC50 (lethal concentration, 50% cell kill): 17.5 µM
HCT-116
  TGI: 4.40 µM
HCT-116; Homo sapiens
  GI50: 2.16 µM
HCT-15
  TGI: 87.8 µM
  GI50: 23.9 µM
  CC50: > 100 µM
HT29
  TGI: >100 µM
  GI50: 3.64 µM
  CC50: > 100 µM
SNB-19; Homo sapiens
  GI50: 1.59 µM
SNB-19
  TGI: 3.21 µM
LOX IMVI
  GI50: 1.4 µM
  LC50: 5.2 µM
  TGI: 2.70 µM
IGROV1; Homo sapiens, IGROV-1
  GI50: 3.56 µM
  CC50: 81 µM
IGROV1
  TGI: 17.9 µM
OVCAR-5
  GI50: 1.92 µM
  CC50: 6.57 µM
  TGI: 3.55 µM
SK-OV-3
  GI50: 1.61 µM
  CC50: 5.88 µM
  TGI: 3.08 µM
A498
  TGI: 8.26 µM
  GI50: 1.99 µM
  CC50: 37.9 µM
DU-145
  TGI: 20.0 µM
  GI50: 6.94 µM
  CC50: 46.3 µM
HS 578T
  TGI: 4.77 µM
  GI50: 1.64 µM
  CC50: 32.7 µM
[1]
  Range (Percentage of Control over the same 10 cell lines): 4.3 to 108.6%
  viability at 10 µM: 76.8%
